{"source": "patent US6506607B1", "about": "“Methods and compositions for the identification and assessment of prostate cancer therapies and the diagnosis of prostate cancer” (Millennium Pharmaceuticals, Inc., priority 1997, dated 2003)", "test_system": "LNCaP cells", "assay": "Gene expression in bicalutamide-treated vs untreated LNCaP cells (subtraction library, Gene Expression Micro-Array)", "format": "cell-based", "settings": "25 hours", "data": [{"molecule": "CC(O)(CS(=O)(=O)c1ccc(F)cc1)C(=O)Nc1ccc(C#N)c(C(F)(F)F)c1", "note": "(centres unmarked) [bicalutamide, Bicalutamide]", "values": [{"measurement": "FOLD INCREASE IN mRNA: Cyclin-dependent kinase inhibitor 1 {268652}", "setting": "SEQ ID NO 41, 100 nM bicalutamide", "value": 4.5, "unit": "fold"}, {"measurement": "FOLD INCREASE IN mRNA: Activating transcription factor 3 (ATF3) {428248}", "setting": "SEQ ID NO 42, 100 nM bicalutamide", "value": 11.5, "unit": "fold"}, {"measurement": "FOLD INCREASE IN mRNA: Defender against cell death 1 {488974}", "setting": "SEQ ID NO 43, 100 nM bicalutamide", "value": 2.9, "unit": "fold"}, {"measurement": "FOLD INCREASE IN mRNA: CLCN3 {346749}", "setting": "SEQ ID NO 46, 100 nM bicalutamide", "value": 2.4, "unit": "fold"}, {"measurement": "FOLD INCREASE IN mRNA: Phosphotyrosine independent ligand p62 for the Lck SH2 domain {510278}", "setting": "SEQ ID NO 47, 100 nM bicalutamide", "value": 5.8, "unit": "fold"}, {"measurement": "FOLD INCREASE IN mRNA: Seryl-tRNA synthetase {510431}", "setting": "SEQ ID NO 48, 100 nM bicalutamide", "value": 4.3, "unit": "fold"}, {"measurement": "FOLD INCREASE IN mRNA: D53 (hD53) {510461}", "setting": "SEQ ID NO 49, 100 nM bicalutamide", "value": 3.8, "unit": "fold"}, {"measurement": "FOLD INCREASE IN mRNA: Unknown human protein {512334}", "setting": "SEQ ID NO 50, 100 nM bicalutamide", "value": 3.5, "unit": "fold"}, {"measurement": "FOLD INCREASE IN mRNA: Thioredoxin reductase {510377}", "setting": "SEQ ID NO 51, 100 nM bicalutamide", "value": 2.6, "unit": "fold"}, {"measurement": "FOLD INCREASE IN mRNA: ORF and HepG2 (identical sequence) {510258}", "setting": "SEQ ID NO 53, 100 nM bicalutamide", "value": 5.3, "unit": "fold"}, {"measurement": "FOLD INCREASE IN mRNA: 4F2 cell-surface antigen heavy chain {510504}", "setting": "SEQ ID NO 54, 100 nM bicalutamide", "value": 8.1, "unit": "fold"}, {"measurement": "FOLD INCREASE IN mRNA: Asparagine synthetase {510206}", "setting": "SEQ ID NO 55, 100 nM bicalutamide", "value": 2.8, "unit": "fold"}, {"measurement": "FOLD INCREASE IN mRNA: pM5 {509550}", "setting": "SEQ ID NO 56, 100 nM bicalutamide", "value": 2.3, "unit": "fold"}, {"measurement": "FOLD INCREASE IN mRNA: Archain {488510}", "setting": "SEQ ID NO 57, 100 nM bicalutamide", "value": 2.3, "unit": "fold"}, {"measurement": "FOLD INCREASE IN mRNA: Gravin {488106}", "setting": "SEQ ID NO 58, 100 nM bicalutamide", "value": 2.8, "unit": "fold"}, {"measurement": "FOLD INCREASE IN mRNA: Signal recognition particle receptor alpha subunit {358710}", "setting": "SEQ ID NO 60, 100 nM bicalutamide", "value": 2.6, "unit": "fold"}, {"measurement": "FOLD INCREASE IN mRNA: Phosphoenolpyruvate carboxykinase {363272}", "setting": "SEQ ID NO 61, 100 nM bicalutamide", "value": 3.4, "unit": "fold"}, {"measurement": "FOLD INCREASE IN mRNA: Protein translation factor SUI1 homolog {365542}", "setting": "SEQ ID NO 62, 100 nM bicalutamide", "value": 2.7, "unit": "fold"}, {"measurement": "FOLD INCREASE IN mRNA: NADPH-flavin reductase {365775}", "setting": "SEQ ID NO 63, 100 nM bicalutamide", "value": 3.7, "unit": "fold"}, {"measurement": "FOLD INCREASE IN mRNA: Peptidyl-prolyl CIS-trans isomerase B precursor {376399}", "setting": "SEQ ID NO 64, 100 nM bicalutamide", "value": 2.5, "unit": "fold"}, {"measurement": "FOLD INCREASE IN mRNA: Aspartate aminotransferase {417270}", "setting": "SEQ ID NO 65, 100 nM bicalutamide", "value": 3.1, "unit": "fold"}, {"measurement": "FOLD INCREASE IN mRNA: OS-9 precursor {417136}", "setting": "SEQ ID NO 66, 100 nM bicalutamide", "value": 2.7, "unit": "fold"}, {"measurement": "FOLD INCREASE IN mRNA: KIAA0025 and PIGHEP3 homologous region {418227}", "setting": "SEQ ID NO 67, 100 nM bicalutamide", "value": 5.3, "unit": "fold"}, {"measurement": "FOLD INCREASE IN mRNA: Glucosamine-fructose-6-phosphate aminotransferase {469633}", "setting": "SEQ ID NO 68, 100 nM bicalutamide", "value": 3.2, "unit": "fold"}, {"measurement": "FOLD INCREASE IN mRNA: ADP-ribosylation factor 1 {471384}", "setting": "SEQ ID NO 69, 100 nM bicalutamide", "value": 3.1, "unit": "fold"}, {"measurement": "FOLD INCREASE IN mRNA: Glycyl-tRNA synthetase {471164}", "setting": "SEQ ID NO 70, 100 nM bicalutamide", "value": 3.6, "unit": "fold"}, {"measurement": "FOLD INCREASE IN mRNA: Prion protein (PrP) {470074}", "setting": "SEQ ID NO 71, 100 nM bicalutamide", "value": 3.1, "unit": "fold"}, {"measurement": "FOLD INCREASE IN mRNA: Mitochondrial serine hydroxymethyltransferase {344080}", "setting": "SEQ ID NO 72, 100 nM bicalutamide", "value": 2.4, "unit": "fold"}, {"measurement": "FOLD INCREASE IN mRNA: Alanyl-TRNA synthetase {343998}", "setting": "SEQ ID NO 73, 100 nM bicalutamide", "value": 3.8, "unit": "fold"}, {"measurement": "FOLD INCREASE IN mRNA: Translocon-associated protein {324179}", "setting": "SEQ ID NO 76, 100 nM bicalutamide", "value": 2.5, "unit": "fold"}, {"measurement": "FOLD INCREASE IN mRNA: Translation initiation factor 5 (elF5) {299843}", "setting": "SEQ ID NO 78, 100 nM bicalutamide", "value": 2.3, "unit": "fold"}, {"measurement": "FOLD INCREASE IN mRNA: RESTIN {291620}", "setting": "SEQ ID NO 79, 100 nM bicalutamide", "value": 2.3, "unit": "fold"}, {"measurement": "FOLD INCREASE IN mRNA: Transcription elongation factor S-II {257458}", "setting": "SEQ ID NO 80, 100 nM bicalutamide", "value": 2.8, "unit": "fold"}, {"measurement": "FOLD INCREASE IN mRNA: Human clone 137308 {252491}", "setting": "SEQ ID NO 81, 100 nM bicalutamide", "value": 2.6, "unit": "fold"}, {"measurement": "FOLD INCREASE IN mRNA: Glutamate-cysteine ligase regulatory subunit {245939}", "setting": "SEQ ID NO 82, 100 nM bicalutamide", "value": 4.1, "unit": "fold"}, {"measurement": "FOLD INCREASE IN mRNA: Fatty aldehyde dehydrogenase {208950}", "setting": "SEQ ID NO 83, 100 nM bicalutamide", "value": 3.1, "unit": "fold"}, {"measurement": "FOLD INCREASE IN mRNA: MHC class I HLA-Bw58 gene {203448}", "setting": "SEQ ID NO 84, 100 nM bicalutamide", "value": 2.3, "unit": "fold"}, {"measurement": "FOLD INCREASE IN mRNA: Mitochondrial NDA (P)+ dependent malic enzyme {109375}", "setting": "SEQ ID NO 85, 100 nM bicalutamide", "value": 2.5, "unit": "fold"}, {"measurement": "FOLD INCREASE IN mRNA: GADD 153 = Growth arrest and DNA-damage inductor gene {362009}", "setting": "SEQ ID NO 136, 100 nM bicalutamide", "value": 11.1, "unit": "fold"}, {"measurement": "FOLD INCREASE IN mRNA: KIAA0025 gene {30476}", "setting": "SEQ ID NO 137, 100 nM bicalutamide", "value": 6.7, "unit": "fold"}, {"measurement": "FOLD INCREASE IN mRNA: Phosphotyrosine independent ligand p62 for the Lck SH2 domain {471392}", "setting": "SEQ ID NO 138, 100 nM bicalutamide", "value": 6.4, "unit": "fold"}, {"measurement": "FOLD INCREASE IN mRNA: 150 kDa oxygen-regulated protein ORP150 {486858}", "setting": "SEQ ID NO 139, 100 nM bicalutamide", "value": 5.9, "unit": "fold"}, {"measurement": "FOLD INCREASE IN mRNA: 78 KD Glucose regulated protein precursor {366350}", "setting": "SEQ ID NO 140, 100 nM bicalutamide", "value": 4, "unit": "fold"}, {"measurement": "FOLD INCREASE IN mRNA: Smad 1 {345928}", "setting": "SEQ ID NO 141, 100 nM bicalutamide", "value": 3.9, "unit": "fold"}, {"measurement": "FOLD INCREASE IN mRNA: EST28g11 WATM1 {486703}", "setting": "SEQ ID NO 142, 100 nM bicalutamide", "value": 3.8, "unit": "fold"}, {"measurement": "FOLD INCREASE IN mRNA: ESTs {322080}", "setting": "SEQ ID NO 143, 100 nM bicalutamide", "value": 3.7, "unit": "fold"}, {"measurement": "FOLD INCREASE IN mRNA: Seryl-tRNA sythetase {129892}", "setting": "SEQ ID NO 144, 100 nM bicalutamide", "value": 3.6, "unit": "fold"}]}]}
